# Measurements taken from patent US10336725B2, “Chemical compounds” (AstraZeneca AB, priority 2014, dated 2019).
# Where a name gives a salt, the structure may show the parent alone.
# Molecular target: T1, Sodium Channel ENaC (Homo sapiens, UniProt P37088+P51168+P51170)
# T1 construct: Human primary bronchial epithelial cells differentiated at air-liquid interface (ALI); host or cells: Human primary bronchial epithelial cells differentiated at air-liquid interface
# T1 sequence (P37088 1-669): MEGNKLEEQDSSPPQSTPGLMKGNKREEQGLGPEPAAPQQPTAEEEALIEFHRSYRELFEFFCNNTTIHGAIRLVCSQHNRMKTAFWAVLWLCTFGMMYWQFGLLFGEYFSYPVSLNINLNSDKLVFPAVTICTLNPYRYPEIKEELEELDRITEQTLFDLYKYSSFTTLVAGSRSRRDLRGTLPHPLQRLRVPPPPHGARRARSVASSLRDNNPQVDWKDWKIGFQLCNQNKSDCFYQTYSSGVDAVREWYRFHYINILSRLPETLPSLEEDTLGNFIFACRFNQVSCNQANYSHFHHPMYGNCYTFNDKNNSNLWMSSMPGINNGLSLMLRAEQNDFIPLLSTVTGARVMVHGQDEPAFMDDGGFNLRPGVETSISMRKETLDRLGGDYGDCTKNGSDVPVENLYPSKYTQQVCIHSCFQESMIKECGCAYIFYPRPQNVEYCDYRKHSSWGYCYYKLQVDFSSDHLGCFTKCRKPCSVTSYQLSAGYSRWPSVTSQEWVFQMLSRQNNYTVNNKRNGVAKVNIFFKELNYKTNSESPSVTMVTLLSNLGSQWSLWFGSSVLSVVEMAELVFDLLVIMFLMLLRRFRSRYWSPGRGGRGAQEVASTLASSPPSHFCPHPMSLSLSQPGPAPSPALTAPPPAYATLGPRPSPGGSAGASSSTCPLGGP
# T1 sequence (P51168 1-640): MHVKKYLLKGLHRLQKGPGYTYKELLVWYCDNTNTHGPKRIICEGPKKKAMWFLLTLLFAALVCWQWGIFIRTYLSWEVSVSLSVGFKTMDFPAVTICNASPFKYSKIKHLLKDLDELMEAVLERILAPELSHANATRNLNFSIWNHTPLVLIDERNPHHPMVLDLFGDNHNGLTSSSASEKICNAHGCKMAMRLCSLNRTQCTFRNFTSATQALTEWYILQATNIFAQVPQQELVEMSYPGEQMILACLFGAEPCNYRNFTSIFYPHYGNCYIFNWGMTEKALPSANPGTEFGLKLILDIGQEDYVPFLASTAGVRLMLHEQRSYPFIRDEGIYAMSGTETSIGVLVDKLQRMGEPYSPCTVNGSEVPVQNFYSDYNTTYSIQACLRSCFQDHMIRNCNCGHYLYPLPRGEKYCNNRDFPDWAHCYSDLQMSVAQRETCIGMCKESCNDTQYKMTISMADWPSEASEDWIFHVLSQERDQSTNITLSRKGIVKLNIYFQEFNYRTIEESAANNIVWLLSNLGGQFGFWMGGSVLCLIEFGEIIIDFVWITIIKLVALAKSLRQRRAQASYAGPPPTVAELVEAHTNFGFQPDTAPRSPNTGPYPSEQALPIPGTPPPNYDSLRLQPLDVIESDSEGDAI
# T1 sequence (P51170 1-649): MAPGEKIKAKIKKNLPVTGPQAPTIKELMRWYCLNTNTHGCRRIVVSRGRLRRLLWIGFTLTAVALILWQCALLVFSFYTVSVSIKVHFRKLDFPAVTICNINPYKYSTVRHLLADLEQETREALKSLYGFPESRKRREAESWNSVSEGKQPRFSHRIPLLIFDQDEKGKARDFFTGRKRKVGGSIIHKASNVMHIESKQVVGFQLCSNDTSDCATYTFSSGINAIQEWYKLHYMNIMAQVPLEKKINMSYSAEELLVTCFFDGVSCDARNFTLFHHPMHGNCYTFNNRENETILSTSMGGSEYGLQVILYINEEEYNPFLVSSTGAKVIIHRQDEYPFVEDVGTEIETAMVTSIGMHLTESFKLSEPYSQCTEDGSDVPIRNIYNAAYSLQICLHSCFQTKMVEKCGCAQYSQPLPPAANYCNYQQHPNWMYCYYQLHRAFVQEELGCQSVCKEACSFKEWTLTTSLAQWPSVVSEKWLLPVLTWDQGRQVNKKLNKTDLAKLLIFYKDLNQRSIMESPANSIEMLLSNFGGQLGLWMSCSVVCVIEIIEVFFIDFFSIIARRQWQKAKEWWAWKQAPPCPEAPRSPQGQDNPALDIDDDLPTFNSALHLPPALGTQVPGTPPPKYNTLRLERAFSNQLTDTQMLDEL
# Assay: Sodium Channel ENaC Ussing Chamber Test (short circuit current)
# Format: cell-based
# Details: human primary bronchial epithelial cells at air-liquid interface; inhibition of short circuit current; compounds added to the apical side
# Description: Sodium Channel ENaC Ussing Chamber Test
# Human primary bronchial epithelial cells differentiated at air-liquid interface (ALI) on snapwell permeable supports (MatTek Corporation, MA, USA, cat no AIR-100-SNP) were maintained at ALI culture in a humidified incubator at 37° C. and 5% CO2. Basolateral medium (MatTek Corporation, MA, USA cat no AIR-100-MM-ASY) was changed every second day. Mucus or liquid formed on the apical side was gently aspirated every second day to maintain viability and performance of the cells.
# The transepithelial voltage between the luminal/apical and basolateral membrane were measured in the ussing chamber consisted of vertical, in-house manufactured ussing chambers, DVC-1000 V/C clamps with preamplifiers (World Precision Instruments), electrode kits (EK1, World Precision Instruments), Power Lab with Chart5 software, water bath with external circulation and carbogen gas distribution and regulation system. Electrodes used in the set up were casted manually using 4% agarose in 0.9% sterile NaCl according to the manufacturer's recommendation.
# The ussing chambers were assembled with an empty snapwell membrane (Costar 3407) and electrodes contained in Kreb's buffer (SIGMA-ALDRICH cat no K3753) for one hour at 37° C. in presence of 95% oxygen and 5% carbon dioxide. After this equilibration step the system was compensated for fluid resistance and input offset.
# The equilibrated chambers were reassembled with a snapwell containing ALI cells and after 20 minutes stabilisation cumulative doses of the compounds were added to the apical side of the membrane. After the final dose 10 μM Benzamil was added to reach maximum.
# All test compounds, including the reference compound, were diluted from 10 mM stocks in 100% DMSO and added to opaque 96-well plates (Greiner, Cat No. 651201). Dilution series of 12 doses were prepared in DMSO, starting with 3 μM followed by 10 times dilution steps.
# Chart5 for Windows software was used to measure the value of the short circuit current after each compound addition. The data was transferred into Excel and analysed using IDBS XLfit® 5.2 (ID Business Solutions Ltd). The molar concentration of test or reference compound producing 50% inhibition (curve IC50) was derived by fitting data to a 4-parameter logistic function of the form: y=(A+((B−A)/(1+(((10^C)/x)^D))))
# A The bottom plateau of the curve, i.e. the final minimum y value
# B The top of the plateau of the curve i.e. the final maximum y value
# C The log10 x value at a y value of 50%.
row,IC50,SMILES
1,0.316 nM,"Cc1ccccc1C[C@H](CNCC1CCN(C(=O)CCNC[C@H](O)[C@@H](O)[C@H](O)CO)CC1)CNC(=O)c1nc(Cl)c(N)nc1N [Example 1, 3,5-diamino-6-chloro-N—((R)-2-(2-methylbenzyl)-3-(((1-(3-(((2S,3R,4R)-2,3,4,5-tetrahydroxypentyl)amino)propanoyl)piperidin-4-yl)methyl)amino)propyl)pyrazine-2-carboxamide]"
2,2.51 nM,"CCCCCCN(CCNC(=O)c1ccc(CNC[C@H](CNC(=O)c2nc(Cl)c(N)nc2N)Cc2ccccc2C)cc1)C[C@H](O)[C@@H](O)[C@H](O)CO [Example 2, 3,5-diamino-6-chloro-N—((R)-3-((4-((2-(hexyl((2S,3R,4R)-2,3,4,5-tetrahydroxypentyl)amino)ethyl)carbamoyl)benzyl)amino)-2-(2-methylbenzyl)propyl)pyrazine-2-carboxamide]"
3,0.0794 nM,"CCCCCCN(CCNC(=O)N1CCC(CNC[C@H](CNC(=O)c2nc(Cl)c(N)nc2N)Cc2ccccc2C)CC1)C[C@H](O)[C@@H](O)[C@H](O)[C@H](O)CO [Example 3, 3,5-diamino-6-chloro-N—((R)-3-((1-(2-(hexyl((2S,3R,4R,5R)-2,3,4,5,6-pentahydroxyhexyl)amino)ethylcarbamoyl)piperidin-4-yl)methylamino)-2-(2-methylbenzyl)propyl)pyrazine-2-carboxamide]"
4,0.631 nM,"CCCCCCN(CCC(=O)N1CCC(CNC[C@H](CNC(=O)c2nc(Cl)c(N)nc2N)Cc2ccccc2C)CC1)C[C@H](O)[C@@H](O)[C@H](O)[C@H](O)CO [Example 4, 3,5-diamino-6-chloro-N—((R)-3-((1-(3-(hexyl((2S,3R,4R,5R)-2,3,4,5,6-pentahydroxyhexyl)amino)propanoyl)piperidin-4-yl)methylamino)-2-(2-methylbenzyl)propyl)pyrazine-2-carboxamide]"
5,1 nM,"CCCCCCN(CCC(=O)N1CCC(CNC[C@H](CNC(=O)c2nc(Cl)c(N)nc2N)Cc2ccccc2C)CC1)C[C@H](O)[C@@H](O)[C@H](O)CO [Example 5, 3,5-diamino-6-chloro-N—((R)-3-((1-(3-(hexyl((2S,3R,4R)-2,3,4,5-tetrahydroxypentyl)amino)propanoyl)piperidin-4-yl)methylamino)-2-(2-methylbenzyl)propyl)pyrazine-2-carboxamide]"
6,0.316 nM,"CCCCCCN(CCCC(=O)N1CCC(CNC[C@H](CNC(=O)c2nc(Cl)c(N)nc2N)Cc2ccccc2C)CC1)C[C@H](O)[C@@H](O)[C@H](O)[C@H](O)CO [Example 6, 3,5-diamino-6-chloro-N—((R)-3-((1-(4-(hexyl((2S,3R,4R,5R)-2,3,4,5,6-pentahydroxyhexyl)amino)butanoyl)piperidin-4-yl)methylamino)-2-(2-methylbenzyl)propyl)pyrazine-2-carboxamide]"
7,1.26 nM,"Cc1ccccc1C[C@H](CNCC1CCN(C(=O)CCNC[C@H](O)[C@@H](O)[C@H](O)[C@H](O)CO)CC1)CNC(=O)c1nc(Cl)c(N)nc1N [Example 7, 3,5-diamino-6-chloro-N—((R)-2-(2-methylbenzyl)-3-((1-(3-((2S,3R,4R,5R)-2,3,4,5,6-pentahydroxyhexylamino)propanoyl)piperidin-4-yl)methylamino)propyl)pyrazine-2-carboxamide]"
8,0.316 nM,"CCCCCCN(CCC(=O)N1CCC(CNC[C@H](CNC(=O)c2nc(Cl)c(N)nc2N)Cc2ccccc2C)CC1)C[C@@H](O)[C@@H](O)[C@H](O)[C@H](O)CO [Example 8, 3,5-diamino-6-chloro-N—((R)-3-((1-(3-(hexyl((2R,3R,4R,5R)-2,3,4,5,6-pentahydroxyhexyl)amino)propanoyl)piperidin-4-yl)methylamino)-2-(2-methylbenzyl)propyl)pyrazine-2-carboxamide]"
9,2.51 nM,"CCCCCCN(CCNC(=O)c1ccc(CNC[C@H](CNC(=O)c2nc(Cl)c(N)nc2N)Cc2ccccc2C)cc1)C[C@@H](O)[C@@H](O)[C@H](O)[C@H](O)CO [Example 9, 3,5-diamino-6-chloro-N—((R)-3-((4-((2-(hexyl((2R,3R,4R,5R)-2,3,4,5,6-pentahydroxyhexyl)amino)ethyl)carbamoyl)benzyl)amino)-2-(2-methylbenzyl)propyl)pyrazine-2-carboxamide Dihydrochloride]"
10,2.51 nM,"CCCCCCN(CCNC(=O)c1ccc(CNC[C@H](CNC(=O)c2nc(Cl)c(N)nc2N)Cc2ccccc2C)cc1)C[C@H](O)[C@@H](O)[C@H](O)[C@H](O)CO [Example 10, 3,5-diamino-6-chloro-N—((R)-3-((4-((2-(hexyl((2S,3R,4R,5R)-2,3,4,5,6-pentahydroxyhexyl)amino)ethyl)carbamoyl)benzyl)amino)-2-(2-methylbenzyl)propyl)pyrazine-2-carboxamide]"
11,0.251 nM,"CCCCCCN(CCNC(=O)c1ccc(CCNC[C@H](CNC(=O)c2nc(Cl)c(N)nc2N)Cc2ccccc2C)cc1)C[C@H](O)[C@@H](O)[C@H](O)[C@H](O)CO [Example 12, 3,5-diamino-6-chloro-N—((R)-3-((4-((2-(hexyl((2S,3R,4R,5R)-2,3,4,5,6-pentahydroxyhexyl)amino)ethyl)carbamoyl)phenethyl)amino)-2-(2-methylbenzyl)propyl)pyrazine-2-carboxamide Dihydrochloride]"

row,SMILES,IC50
1,"CCCCCCN(CCNC(=O)Oc1ccc(CNC[C@H](CNC(=O)c2nc(Cl)c(N)nc2N)Cc2ccccc2C)cc1)C[C@H](O)[C@@H](O)[C@H](O)[C@H](O)CO [Example 11, 4-(((R)-3-(3,5-diamino-6-chloropyrazine-2-carboxamido)-2-(2-methylbenzyl)propylamino)methyl)phenyl 2-(hexyl((2S,3R,4R,5R)-2,3,4,5,6-pentahydroxyhexyl)amino)ethylcarbamate]",1.58 nM
